Assay results taken from patent US10117944B2, “Targeted therapeutics” (Madrigal Pharmaceuticals, Inc., priority 2014, dated 2018).

Columns and labels:
HER2 = HER2 degradation assay with BT-474 cell line; format: cell-based, human; conditions: BT-474 cells, overnight incubation
Protocol: BT-474 cells (human breast cancer cell line ATCC HTB-20) were obtained from ATCC and seeded into 12-well tissue culture plates at 0.2×10^6/1.8 mL/well. The cells were incubated for more than 6 hours at 37° C. in DMEM+10% FBS, +1% P/S, +1.5 g/L sodium bicarbonate. […] The DMSO final concentration was 0.2%. Cells were incubated overnight at 37° C. in 5% CO2.
Media was decanted from the plate, cells were washed 1× in PBS. 400 μL trypsin (EDTA) per well was added, and the cells were incubated for 2 to 3 minutes. Cells were collected into FACS tubes containing 1 ml culture medium to neutralize the trypsin and were centrifuged for 5 minutes at 1200 rpm. Supernatant was decanted and the cells were resuspended in 5 μL FITC (anti HER2/nu)/200 μL staining buffer (1×PBS+1% FBS+0.05% Sodium Azide)/tube. Controls were 5 μL IgG isotype control and staining buffer only. Tubes were incubated for 30 minutes in the dark at room temperature. 1 mL staining buffer was added to each tube and the tubes were centrifuged for 6 minutes at 1200 rpm. The supernatant was decanted and 300 μL staining buffer was added to each tube, which was stored at 4° C. for FACS (cytometer) analysis. The cytometer readout was normalized and the potency of each compound was evaluated with IC50 calculated with XLfit™ software.

[1] = Stability of SDC-TRAPs in mouse plasma; format: in vitro ADME; conditions: 37° C.
Protocol: SDC-TRAPs were incubated in mouse plasma for 1 h at 37° C. and assayed for integrity at 0, 0.25, 0.5 and 1 h to assess the stability of the SDC-TRAP, e.g., as compared to the effector and targeting compounds. Compound stability was determined using […].

[2] = phase I trial; cited from earlier work
[3] = estimated; cited from earlier work

SMILES | IC50 (HER2) [nM] | % Remaining (1 h) [1] [%] | Dose at which dose-limiting toxic effects are observed [2] [mg/m^2] | Patients presenting with peripheral neuropathy [3]
CCNC(=O)c1nnc(-c2cc(C(C)C)c(O)cc2O)n1-c1ccc(C(=O)N(C)CC[C@]23OB([C@H](CC(C)C)NC(=O)[C@H](Cc4ccccc4)NC(=O)c4cnccn4)O[C@H]2C[C@H]2C[C@@H]3C2(C)C)cc1 [SDC-TRAP-0244, N—((S)-1-(((R)-1-((3aR,4R,6R,7aS)-3a-(2-(4-(3-(2,4-dihydroxy-5-isopropylphenyl)-5-(ethylcarbamoyl)-4H-1,2,4-triazol-4-yl)-N-methylbenzamido)ethyl)-5,5-dimethylhexahydro-4,6-methanobenzo[d][1,3,2]dioxaborol-2-yl)-3-methylbutyl)amino)-1-oxo-3-phenylpropan-2-yl)pyrazine-2-carboxamide] | 100 | 62.9 | – | –
CCNC(=O)c1nnc(-c2cc(C(C)C)c(O)cc2O)n1-c1ccc(Oc2ccc(C(=O)NCCCCCCC3(C)OB([C@H](CC(C)C)NC(=O)[C@H](Cc4ccccc4)NC(=O)c4cnccn4)OC3(C)C)cc2)cc1 (stereo partly drawn) [SDC-TRAP-0246, N-((2S)-1-(((1R)-1-(4-(6-(4-(4-(3-(2,4-dihydroxy-5-isopropylphenyl)-5-(ethylcarbamoyl)-4H-1,2,4-triazol-4-yl)phenoxy)benzamido)hexyl)-4,5,5-trimethyl-1,3,2-dioxaborolan-2-yl)-3-methylbutyl)amino)-1-oxo-3-phenylpropan-2-yl)pyrazine-2-carboxamide] | 110 | 63.6 | – | –
CCNC(=O)c1nnc(-c2cc(C(C)C)c(O)cc2O)n1-c1ccc(C(=O)NCCCCCCC2(C)OB([C@H](CC(C)C)NC(=O)[C@H](Cc3ccccc3)NC(=O)c3cnccn3)OC2(C)C)cc1 (stereo partly drawn) [SDC-TRAP-0247, N-((2S)-1-(((1R)-1-(4-(6-(4-(3-(2,4-dihydroxy-5-isopropylphenyl)-5-(ethylcarbamoyl)-4H-1,2,4-triazol-4-yl)benzamido)hexyl)-4,5,5-trimethyl-1,3,2-dioxaborolan-2-yl)-3-methylbutyl)amino)-1-oxo-3-phenylpropan-2-yl)pyrazine-2-carboxamide] | 36 | 11.8 | – | –
CCNC(=O)c1nnc(-c2cc(C(C)C)c(O)cc2O)n1-c1ccc(Oc2ccc(C(=O)NCC[C@]34OB([C@H](CC(C)C)NC(=O)[C@H](Cc5ccccc5)NC(=O)c5cnccn5)O[C@H]3C[C@@H]3C[C@H]4C3(C)C)cc2)cc1 [SDC-TRAP-0248, N—((S)-1-(((R)-1-((3aR,4S,6S,7aS)-3a-(2-(4-(4-(3-(2,4-dihydroxy-5-isopropylphenyl)-5-(ethylcarbamoyl)-4H-1,2,4-triazol-4-yl)phenoxy)benzamido)ethyl)-5,5-dimethylhexahydro-4,6-methanobenzo[d][1,3,2]dioxaborol-2-yl)-3-methylbutyl)amino)-1-oxo-3-phenylpropan-2-yl)pyrazine-2-carboxamide] | 37 | 54.8 | – | –
CCNC(=O)c1nnc(-c2cc(C(C)C)c(O)cc2O)n1-c1ccc(Oc2ccc(C(=O)N3CCC4(CC3)OB([C@H](CC(C)C)NC(=O)[C@H](Cc3ccccc3)NC(=O)c3cnccn3)OC4(C)C)cc2)cc1 [SDC-TRAP-0249, N—((S)-1-(((R)-1-(8-(4-(4-(3-(2,4-dihydroxy-5-isopropylphenyl)-5-(ethylcarbamoyl)-4H-1,2,4-triazol-4-yl)phenoxy)benzoyl)-4,4-dimethyl-1,3-dioxa-8-aza-2-boraspiro[4.5]decan-2-yl)-3-methylbutyl)amino)-1-oxo-3-phenylpropan-2-yl)pyrazine-2-carboxamide] | 36 | 8.93 | – | –
CC(C)C[C@H](NC(=O)[C@H](Cc1ccccc1)NC(=O)c1cnccn1)B1OC(C)(C)C2(CCN(C(=O)CCn3ccc4cc(-n5c(O)nnc5-c5cc(C(C)C)c(O)cc5O)ccc43)CC2)O1 [SDC-TRAP-0250, N—((S)-1-(((R)-1-(8-(3-(5-(3-(2,4-dihydroxy-5-isopropylphenyl)-5-hydroxy-4H-1,2,4-triazol-4-yl)-1H-indol-1-yl)propanoyl)-4,4-dimethyl-1,3-dioxa-8-aza-2-boraspiro[4.5]decan-2-yl)-3-methylbutyl)amino)-1-oxo-3-phenylpropan-2-yl)pyrazine-2-carboxamide] | 2120 | 27.0 | – | –
CCNC(=O)c1nnc(-c2cc(C(C)C)c(O)cc2O)n1-c1ccc(C(=O)N2CCC3(CC2)OB([C@H](CC(C)C)NC(=O)[C@H](Cc2ccccc2)NC(=O)c2cnccn2)OC3(C)C)cc1 [SDC-TRAP-0251, N—((S)-1-(((R)-1-(8-(4-(3-(2,4-dihydroxy-5-isopropylphenyl)-5-(ethylcarbamoyl)-4H-1,2,4-triazol-4-yl)benzoyl)-4,4-dimethyl-1,3-dioxa-8-aza-2-boraspiro[4.5]decan-2-yl)-3-methylbutyl)amino)-1-oxo-3-phenylpropan-2-yl)pyrazine-2-carboxamide] | > 5000 | 13.4 | – | –
CC(C)C[C@H](NC(=O)[C@H](Cc1ccccc1)NC(=O)c1cnccn1)B(O)O [bortezomib] | – | – | 1.5 | more than 40%
